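Five concentrations, 48 hours, 96-well plates. The concentration for 50% growth inhibition is given as GI50.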 Calls of active or inactive are those of the source. Cut-off read from the data, not from the text of the source: active = GI50 up to about 1.1 µM and inactive = higher.
How the values were obtained:
Assay in all cases: DTP human tumour cell line panel, 48 h
SK-MEL-2 = test system: SK-MEL-2
UO-31 = test system: UO-31
EKVX = test system: EKVX
RXF 393 = test system: RXF 393
SR = test system: SR
SN12C = test system: SN12C
K562 = test system: K562
SK-OV-3 = test system: SK-OV-3
IGROV-1 = test system: IGROV-1
MDA-MB-231 = test system: MDA-MB-231
T47D = test system: T47D
HCC 2998 = test system: HCC 2998
SF-539 = test system: SF-539
TK-10 = test system: TK-10
HOP-92 = test system: HOP-92
NCI-H522 = test system: NCI-H522
BT-549 = test system: BT-549
OVCAR-3 = test system: OVCAR-3
KM12 = test system: KM12
SF-268 = test system: SF-268
RPMI-8226 = test system: RPMI-8226
HOP-62 = test system: HOP-62
HT-29 = test system: HT-29
OVCAR-5 = test system: OVCAR-5
NCI-H226 = test system: NCI-H226
COLO 205 = test system: COLO 205
SW-620 = test system: SW-620
786-0 = test system: 786-0
Malme-3M = test system: Malme-3M
HCT-15 = test system: HCT-15
LOX IMVI = test system: LOX IMVI
MDA-N = test system: MDA-N
HL-60 = test system: HL-60
DU-145 = test system: DU-145
NCI-H23 = test system: NCI-H23
SK-MEL-28 = test system: SK-MEL-28
UACC-62 = test system: UACC-62
Hs-578T = test system: Hs-578T
NCI/ADR-RES = test system: NCI/ADR-RES
SK-MEL-5 = test system: SK-MEL-5
UACC-257 = test system: UACC-257
CCRF-CEM = test system: CCRF-CEM
SNB-19 = test system: SNB-19
ACHN = test system: ACHN
OVCAR-8 = test system: OVCAR-8
SNB-75 = test system: SNB-75
MCF7 = test system: MCF7
A549 = test system: A549
U-251 = test system: U-251
MDA-MB-435 = test system: MDA-MB-435
PC-3 = test system: PC-3
HCT-116 = test system: HCT-116
M14 = test system: M14
MOLT-4 = test system: MOLT-4
OVCAR-4 = test system: OVCAR-4
NCI-H460 = test system: NCI-H460

Measured: GI50

Cc1cc2ccccc2n1CC(=O)N1CCCC1
inactive: SK-MEL-2 > 100 µM | UO-31 > 100 µM | EKVX > 100 µM | RXF 393 > 100 µM | SR > 100 µM | SN12C > 100 µM | K562 > 100 µM | SK-OV-3 > 100 µM | IGROV-1 > 100 µM | MDA-MB-231 > 100 µM | T47D > 100 µM | HCC 2998 > 100 µM | SF-539 > 100 µM | TK-10 > 100 µM | HOP-92 > 100 µM | NCI-H522 > 100 µM | BT-549 > 100 µM | OVCAR-3 > 100 µM | KM12 > 100 µM | SF-268 > 100 µM | RPMI-8226 > 100 µM | HOP-62 > 100 µM | HT-29 > 100 µM | OVCAR-5 > 100 µM | NCI-H226 > 100 µM | COLO 205 > 100 µM | SW-620 > 100 µM | 786-0 > 100 µM | Malme-3M > 100 µM | LOX IMVI > 100 µM | MDA-N > 100 µM | HL-60 > 100 µM | DU-145 > 100 µM | NCI-H23 > 100 µM | SK-MEL-28 > 100 µM | UACC-62 > 100 µM | Hs-578T > 100 µM | NCI/ADR-RES > 100 µM | SK-MEL-5 > 100 µM | UACC-257 > 100 µM | CCRF-CEM > 100 µM | SNB-19 > 100 µM | ACHN > 100 µM | OVCAR-8 > 100 µM | SNB-75 > 100 µM | MCF7 > 100 µM | A549 > 100 µM | U-251 > 100 µM | MDA-MB-435 > 100 µM | PC-3 > 100 µM | HCT-116 > 100 µM | M14 > 100 µM | MOLT-4 > 100 µM | OVCAR-4 > 100 µM | NCI-H460 > 100 µM
> 100 µM: HCT-15
